In series [1] the test system is HepG2. The experiment in a line: Cytotoxicity against human HepG2 cells assessed as cell growth inhibition measured after 48 hrs by MTT assay. In kind it is functional, cell-based. The following applies: HepG2, 48 h. (In general: Tetrazolium dyes change colour on reduction, which living cells bring about.)
In series [2] the test system is MCF7. Briefly: Cytotoxicity against human MCF7 cells assessed as cell growth inhibition measured after 48 hrs by MTT assay. The following applies: MCF7, 48 h. The series is classed as functional, cell-based.
For series [3], the system named is K562. Briefly: Cytotoxicity against human K562 cells assessed as reduction in cell growth by MTT assay. The series is classed as functional, cell-based.
Series [4] deals with A549. The experiment in a line: Cytotoxicity against human A549 cells assessed as reduction in cell growth incubated for 48 hrs by MTT assay. The series is classed as functional, cell-based. The following applies: A549, 48 h.
In series [5] the test system is MCF7. The experiment in a line: Cytotoxicity against human MCF7 cells assessed as reduction in cell growth incubated for 48 hrs by MTT assay. The series is classed as functional, cell-based. The following applies: MCF7, 48 h.
For series [6], the system named is K562. Briefly: Cytotoxicity against human K562 cells assessed as reduction in cell viability incubated for 72 hrs by MTT assay. The series is classed as functional, cell-based. The following applies: K562, 72 h.
For series [7], the system named is MDA-MB-231. Briefly: Antiproliferative activity against human MDA-MB-231 cells assessed as reduction in cell viability measured after 72 hrs under hypoxia condition by MTT assay. The following applies: MDA-MB-231, 72 h. The series is classed as functional, cell-based.
The subject of series [8] is MCF7. The experiment in a line: Antiproliferative activity against human MCF7 cells assessed as reduction in cell proliferation by CCK-8 assay. The series is classed as functional, cell-based.
The test system of series [9] is HepG2. Briefly: Antiproliferative activity against human HepG2 cells assessed as reduction in cell viability. The series is classed as functional, cell-based.
For series [10], the system named is Hep 3B2. The experiment in a line: Antiproliferative activity against human Hep3B cells assessed as inhibition of cell viability after 72 hrs by CCK-8 assay. The series is classed as functional, cell-based.
The test system of series [11] is A2780. Briefly: Antiproliferative activity against human A2780 cells assessed as reduction in cell viability incubated for 48 hrs by MTT assay. The following applies: A2780, 48 h. In kind it is functional, cell-based.
Series [12] deals with OVCAR-3. The experiment in a line: Antiproliferative activity against human OVCAR-3 cells assessed as cell viability measured after 72 hrs incubation by MTT assay. In kind it is functional, cell-based. The following applies: OVCAR-3, 72 h.
The test system of series [13] is T47D. Briefly: Anticancer activity against human T47D cells assessed as cell growth inhibition. The series is classed as functional, cell-based.
Series [14] has as its system MCF7. Briefly: Growth inhibition of human MCF7 cells incubated for 48 hrs by SRB assay. In kind it is functional. For orientation: In SRB staining, fixed cells bind dye roughly in proportion to their protein.
Series [15] can be described thus: Cytotoxicity against green monkey COS-7 cells. The series is classed as toxicity, cell-based. The note with it: green monkey (Chlorocebus aethiops).
The subject of series [16] is Caco-2. The experiment in a line: Cytotoxicity against human Caco-2 cells assessed as reduction in cell viability incubated for 72 hrs by MTT assay. The series is classed as functional, cell-based. The following applies: Caco-2, 72 h.
For series [17], the system named is 4T1. Briefly: Cytotoxicity against mouse 4T1 cells assessed as inhibition of cell proliferation incubated for 72 hrs by MTT assay. In kind it is functional, cell-based. The note with it: 4T1, 72 h.
Series [18] relates to HeLa. Briefly: Anticancer activity against human HeLa cells assessed as cell growth inhibition. The series is classed as functional.
The test system of series [19] is HOS. Briefly: Cytotoxicity against human HOS cells assessed as reduction in cell growth incubated for 5 days by MTT assay. The series is classed as functional, cell-based. The note with it: 120 h.
In series [20] the test system is HT-29. Briefly: Cytotoxicity against human HT-29 cells assessed as reduction in cell viability incubated for 48 hrs by SRB assay. The series is classed as functional, cell-based. The note with it: HT-29, 48 h.
Series [21] concerns HCT-116. Briefly: Cytotoxicity against human HCT-116 cells assessed as reduction in cell viability incubated for 48 hrs by SRB assay. The following applies: HCT-116, 48 h. The series is classed as functional, cell-based.
Series [22] relates to HepG2. Briefly: Antiproliferative activity against human HepG2 cells assessed as reduction in cell viability incubated for 48 hrs by MTT assay. The following applies: HepG2, 48 h. The series is classed as functional, cell-based.
In series [23] the test system is MCF7. The experiment in a line: Antiproliferative activity against human MCF7 cells assessed as cell growth inhibition. The series is classed as functional, cell-based.
For series [24], the system named is MCF7. Briefly: Antiproliferative activity against human MCF7 cells assessed as reduction in cell viability incubated for 72 hrs by MTT assay. The following applies: MCF7, 72 h. The series is classed as functional, cell-based.
The test system of series [25] is SW480. Briefly: Cytotoxicity against human SW480 cells assessed as reduction in cell viability incubated for 48 hrs by MTT. The following applies: SW480, 48 h. In kind it is functional, cell-based.
Series [26] has as its system MCF7. Briefly: cells. The following applies: Homo sapiens, MCF7, 24 h.
Description: Cytotoxicity against human MCF7 cells assessed as reduction in cell viability incubated for 24 hrs by MTT assay

Experimental findings from ChEMBL document CHEMBL5357036, “Latest developments in coumarin-based anticancer agents: mechanism of action and structure-activity relationship studies” (RSC Med Chem, 2024) are described below.

In brackets after ≈: the same amount, converted by molar mass.

In the case of `Cc1cc(-c2cc3cc(Cl)ccc3oc2=O)n(-c2nc(-c3ccc(Cl)cc3)cs2)n1`, the IC50 – broadly, the midpoint of a concentration-inhibition curve – turned out to be 3.06 µM in [1] and 4.42 µM in series [2].

Turning to `COc1ccc(-c2csc(-n3nc(C)cc3-c3cc4cc(Cl)ccc4oc3=O)n2)cc1`, the half-maximal inhibitory concentration (IC50) in [2] stood at 4.03 µM.

As for `Cc1c(Cc2ccc(NC(=O)Nc3ccc(F)c(F)c3)nc2)c(=O)oc2cc(O)c(C(C)(C)C)cc12`, the IC50 in series [3] came out at 1.66 µM.

Turning to `O=C(CNCc1cccnc1)Nc1cc2ccccc2oc1=O`, the IC50 in [4] and in series [5] was 69.1 µM in each case.

On to `COc1cccc(-c2cn(Cc3cc(=O)oc4cc(O)c(O)cc34)nn2)c1`, for which the IC50 in series [6] is 17.9 µM.

Turning to `COC(=O)c1cccc(NC(=O)c2ccc(-n3cc(COc4cc(=O)oc5ccccc45)nn3)cc2)c1`, the half-inhibitory concentration (IC50) in series [7] was determined as 0.25 µM.

As for `Cc1c(Cc2ccccc2)c(=O)oc2cc(OS(N)(=O)=O)ccc12`, the IC50 in [8] is 0.032 µM.

For the compound `CCN(CC)c1ccc2cc(C(=O)N3CCN(CCC[C@H]4O[C@@H]5O[C@@]6(C)CC[C@H]7[C@H](C)CC[C@@H]([C@H]4C)[C@@]57OO6)CC3)c(=O)oc2c1`, the concentration for half-maximal inhibition (IC50) in series [9] stood at 3.05 µM; in series [10] it was 3.76 µM; in series [11], 5.82 µM; in series [12] it was 4.6 µM.

For the compound `Cc1cc(-c2cc3ccccc3oc2=O)n(-c2nc(-c3ccc(Cl)cc3)cs2)n1`, the IC50 in [1] stood at 3.74 µM.

Consider `CCCCCCc1c(C)c2ccc(OS(N)(=O)=O)cc2oc1=O`, for which the concentration for half-maximal inhibition (IC50) in series [8] came to 0.008 µM.

In the case of `O=C(/C=C/c1ccc(OCCN2CCCCC2)cc1)c1cc2ccccc2oc1=O`, the IC50 in series [13] turned out to be 2.32 µM. Moreover, the GI50 (commonly the concentration giving 50% growth inhibition) in series [14] was less than 10 µg/mL.

In series [15], `O=c1oc2ccccc2cc1-c1csc(N/N=C/c2cc([N+](=O)[O-])ccc2Cl)n1` returned a half-maximal inhibitory concentration (IC50) of 1.96 µM.

As to `COc1ccccc1-c1cn(Cc2cc(=O)oc3cc(O)c(O)cc23)nn1`, in [16], the half-maximal inhibitory concentration (IC50) stood at 9.7 µM.

For the compound `O=C(Cc1cc(=O)oc2cc(O)ccc12)NCCCCCCCCNc1c2c(nc3ccccc13)CCCC2`, the IC50 in [17] amounted to 7 µM.

Consider `Cc1ccc(S(=O)(=O)n2c(-c3cc(=O)oc4ccc(C)cc34)nc3ccccc32)cc1`, for which, in series [18], the GI50 amounted to 36.2 µg/mL (≈ 84.1 µM).

Regarding `COc1ccc2oc(=O)cc(-c3nc4ccccc4n3S(=O)(=O)c3ccc(C)cc3)c2c1`, the GI50 in series [18] came out at 35.3 µg/mL (≈ 79.1 µM).

On to `Cn1cc(C(C)(c2cc3ccccc3oc2=O)c2cn(C)c3ccccc23)c2ccccc21`, for which the IC50 in series [19] was determined as 12.2 µM.

On to `CCCc1cc(=O)oc2cc(Nc3nc(-c4ccc(Cl)cc4)cs3)ccc12`, for which the concentration for half-maximal inhibition (IC50) in series [20] and in series [21] was 0.25 µM each time.

`C/C(=N\NC1=NCC(=O)S1)c1ccc(NS(=O)(=O)c2ccc3oc(=O)ccc3c2)cc1`: the IC50 in series [22] came to 5.03 µM.

On to `O=C1CCn2cc(nn2)CCOc2ccccc2C(C(=O)c2cc3ccccc3oc2=O)N1` (centres undefined), for which the concentration for half-maximal inhibition (IC50) in series [23] worked out at 49 µM.

As for `Cc1cc(=O)oc2cc(OCC(=O)Nc3ccc(C(=O)/C=C/c4ccco4)cc3)ccc12`, the IC50 in [24] stood at 9.62 µg/mL (≈ 22.4 µM).

Take `COc1cc(/C=C/c2ccc3ccc(=O)oc3c2)ccc1O`: in series [25], the IC50 was 5.33 µM.

In series [26], `C/C(=N\Nc1nc(C)c(/N=N/c2ccc(C)cc2)s1)c1cc2cc(/N=N/c3ccccc3)ccc2oc1=O` displayed a 50% inhibitory concentration (IC50) of 11.2 µM.

Take `COc1ccc(/C=C/C(=N/O)c2ccc(NC(=O)COc3ccc4c(C)cc(=O)oc4c3)cc2)cc1`: the concentration for half-maximal inhibition (IC50) in [24] is 20.9 µg/mL (≈ 43.1 µM).

On to `CCCCCCCCOc1ccc2c(C)c(/C=C/c3cc(OC)ccc3OC)c(=O)oc2c1`, for which, in series [25], the half-inhibitory concentration (IC50) was found to be 6.92 µM.

As to `CCCc1cc(=O)oc2cc(Nc3nc(-c4ccc(Br)cc4)cs3)ccc12`, the IC50 in [20] was 0.25 µM; in series [21] it was 0.26 µM.
